Molecules are shown by their SMILES. pKd: −log10 of the molar value.

Assay [1] concerns the target T1, KpPrAT (Klebsiella pneumoniae protein adenylyltransferase) (Klebsiella variicola, UniProt B5XQE2). The experiment in a line: fluorescence emission blue shift and intensity increase. Format: binding. Set-up: gene ydiU; synthetic gene in pET-11a (NdeI/BamHI), N-terminal His6 tag kept (no cleavage described), E. coli T7 cells, Ni-IMAC, about 54 kDa. The note with it: 10 µM mant-ATP, 2 µM protein, 20 mM sodium phosphate pH 7.4, 20 °C, with or without 5 mM MgCl2; labelled compound.

The target of assay [2] is T1, KpPrAT (Klebsiella pneumoniae protein adenylyltransferase). The assay is described as follows: biochemical. Set-up: gene ydiU. An excerpt: isothermal titration calorimetry on KpPrAT (Klebsiella pneumoniae protein adenylyltransferase)

T1 sequence (B5XQE2 whole entry): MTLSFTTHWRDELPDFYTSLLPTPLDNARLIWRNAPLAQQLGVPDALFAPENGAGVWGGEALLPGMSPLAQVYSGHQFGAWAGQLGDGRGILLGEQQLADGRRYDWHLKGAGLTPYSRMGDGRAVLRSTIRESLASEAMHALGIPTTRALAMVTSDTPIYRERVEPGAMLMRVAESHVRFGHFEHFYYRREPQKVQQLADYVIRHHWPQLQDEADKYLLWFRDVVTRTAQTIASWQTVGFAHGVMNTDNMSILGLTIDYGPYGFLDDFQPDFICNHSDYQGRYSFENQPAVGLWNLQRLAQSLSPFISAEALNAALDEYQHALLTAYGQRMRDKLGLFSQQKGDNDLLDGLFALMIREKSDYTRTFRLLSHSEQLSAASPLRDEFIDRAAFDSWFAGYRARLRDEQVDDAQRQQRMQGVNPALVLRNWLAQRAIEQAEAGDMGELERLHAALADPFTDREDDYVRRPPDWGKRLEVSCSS

As to `CNc1ccccc1C(=O)O[C@H]1[C@@H](O)[C@H](n2cnc3c(N)ncnc32)O[C@@H]1COP(=O)(O)OP(=O)(O)OP(=O)(O)O` [mant-ATP, 2ʹ/3’-O-(N-Methylanthraniloyl) adenosine 5ʹ-triphosphate], the “fluorescence emission blue shift and intensity increase” value in assay [1] is “An increase in fluorescence intensity and blue shift occurs when KpPrAT binds to mant-ATP”.

With `Nc1ncnc2c1ncn2[C@@H]1O[C@H](COP(=O)(O)OP(=O)(O)OP(=O)(O)O)[C@@H](O)[C@H]1O` [ATP], in assay [2], the pKd was 5.53.

A word on the pKd: it is the Kd on a negative log10 scale, so that one unit is a factor of ten. A higher pKd goes with a low Kd.

The record behind these values is article PMC11345332, “Expression, Purification and Biophysical Characterisation of Klebsiella Pneumoniae Protein Adenylyltransferase: A Systematic Integration of Empirical and Computational Modelling Approaches” (The Protein Journal, 2024).
